According to ChEMBL document CHEMBL1201862, “PubChem BioAssay data set” (2004):
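Where inhibition never reached the appropriate level, the endpoint shown equals the highest concentration tested. Otherwise, values were interpolated linearly from a five-concentration, 48-hour dose response in 96-well plates. At the GI50, growth is halved.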 Activity calls are given as the source filed them. Cut-off read from the data, not from the text of the source: active = GI50 up to about 1.1 µM and inactive = higher.

What was measured:
Test in all cases: NCI tumour cell line growth inhibition, 48 h
[1] = system: COLO 205
[2] = system: EKVX
[3] = system: HT-29
[4] = system: K562
[5] = system: MOLT-4
[6] = system: NCI-H23
[7] = system: RXF 393
[8] = system: SK-MEL-28
[9] = system: SN12C
[10] = system: SNB-19
[11] = system: SNB-75
[12] = system: SW-620
[13] = system: U-251
[14] = system: Malme-3M
[15] = system: SK-OV-3
[16] = system: SK-MEL-2

SMILES	GI50 [1]	GI50 [2]	GI50 [3]	GI50 [4]	GI50 [5]	GI50 [6]	GI50 [7]	GI50 [8]	GI50 [9]	GI50 [10]	GI50 [11]	GI50 [12]	GI50 [13]	GI50 [14]	GI50 [15]	GI50 [16]
Cn1nc(-c2cccc(-c3nn(C)/c(=N\CCO)s3)n2)s/c1=N/CCO	> 100 µM (inactive)	> 100 µM (inactive)	> 100 µM (inactive)	> 100 µM (inactive)	> 100 µM (inactive)	> 100 µM (inactive)	> 100 µM (inactive)	> 100 µM (inactive)	> 100 µM (inactive)	> 100 µM (inactive)	> 100 µM (inactive)	> 100 µM (inactive)	> 100 µM (inactive)			
Cc1cc(C)c2c(c1)Nc1ccccc1P2c1ccccc1 (stereo unspecified)	> 100 µM (inactive)	23.5 µM (inactive)	20.3 µM (inactive)	24.5 µM (inactive)	4.51 µM (inactive)	25.9 µM (inactive)	29.2 µM (inactive)	44.1 µM (inactive)	9.82 µM (inactive)	26.7 µM (inactive)	23.7 µM (inactive)	39.8 µM (inactive)	31.7 µM (inactive)	24.5 µM (inactive)	> 100 µM (inactive)	
COC(=O)n1c(CBr)c(Br)c2ccccc21	> 100 µM (inactive)		63.7 µM (inactive)	25.4 µM (inactive)	26.2 µM (inactive)	22.7 µM (inactive)		> 100 µM (inactive)		44.9 µM (inactive)	10.8 µM (inactive)	47.2 µM (inactive)	27 µM (inactive)	79.6 µM (inactive)		23.3 µM (inactive)
NCCCCC(=O)c1cccnc1		> 100 µM (inactive)	> 100 µM (inactive)	> 100 µM (inactive)	> 100 µM (inactive)	> 100 µM (inactive)		> 100 µM (inactive)		> 100 µM (inactive)		> 100 µM (inactive)	> 100 µM (inactive)	> 100 µM (inactive)	> 100 µM (inactive)	> 100 µM (inactive)
O=c1c(Cl)c(Cl)cnn1CCc1ccncc1		19.6 µM (inactive)	16.6 µM (inactive)	35.3 µM (inactive)	82.6 µM (inactive)	17.3 µM (inactive)	24.6 µM (inactive)	16.4 µM (inactive)	18 µM (inactive)	15.6 µM (inactive)	16.6 µM (inactive)	19.1 µM (inactive)		22 µM (inactive)		20.3 µM (inactive)
C=CCCCn1ccc2ccccc21	> 100 µM (inactive)	> 100 µM (inactive)	> 100 µM (inactive)	> 100 µM (inactive)	> 100 µM (inactive)	> 100 µM (inactive)	> 100 µM (inactive)	> 100 µM (inactive)	> 100 µM (inactive)	> 100 µM (inactive)	> 100 µM (inactive)	> 100 µM (inactive)	> 100 µM (inactive)	> 100 µM (inactive)	> 100 µM (inactive)	> 100 µM (inactive)
CC(C)(CN1CCCCC1)C(=O)/C=C/c1ccc(Cl)cc1	4.82 µM (inactive)	3.3 µM (inactive)	3.22 µM (inactive)	2.69 µM (inactive)	1.81 µM (inactive)	2.69 µM (inactive)	3.86 µM (inactive)	8.17 µM (inactive)	2.61 µM (inactive)	5.15 µM (inactive)	2.44 µM (inactive)	2.57 µM (inactive)	3.51 µM (inactive)	5.06 µM (inactive)	11.2 µM (inactive)	
CCCCCCCCCCCCCCCCCC(=O)OCC(C[As](=O)(O)O)OC(=O)CCCCCCCCCCCCCCCCC (stereo unspecified)		> 100 µM (inactive)	34.4 µM (inactive)	44.7 µM (inactive)	> 100 µM (inactive)	34 µM (inactive)	19.2 µM (inactive)	> 100 µM (inactive)	50.1 µM (inactive)	20.2 µM (inactive)	29.4 µM (inactive)	16 µM (inactive)	26 µM (inactive)	30.1 µM (inactive)	18.2 µM (inactive)	70.1 µM (inactive)
CC(C)C1(O)C(c2ccccc2)=C(c2ccccc2)C(c2ccccc2)=C1c1ccccc1	10.1 µM (inactive)	5.28 µM (inactive)	4.26 µM (inactive)	3.52 µM (inactive)	3.21 µM (inactive)	9.59 µM (inactive)	2.82 µM (inactive)		5.31 µM (inactive)	21.8 µM (inactive)	12.3 µM (inactive)	6.12 µM (inactive)	5.11 µM (inactive)	10.4 µM (inactive)	15.2 µM (inactive)	5.33 µM (inactive)
C/C(=N/NS(=O)(=O)c1ccccc1)c1cccc[n+]1[O-]		> 100 µM (inactive)	> 100 µM (inactive)		> 100 µM (inactive)	> 100 µM (inactive)		> 100 µM (inactive)	> 100 µM (inactive)	> 100 µM (inactive)	> 100 µM (inactive)	> 100 µM (inactive)	> 100 µM (inactive)		> 100 µM (inactive)	
CCOC(=O)CC[C@@H](NC(=O)c1ccc(N[C@@H]2c3cc4c(cc3C(c3cc(OC)c(O)c(OC)c3)C3C(=O)OC[C@@H]32)OCO4)cc1)C(=O)OCC (stereo partly specified)	0.119 µM (active)	0.0251 µM (active)	0.0427 µM (active)	0.0469 µM (active)	0.00194 µM (active)	0.0103 µM (active)		0.2 µM (active)	0.0256 µM (active)	0.0197 µM (active)	0.0787 µM (active)	0.0396 µM (active)	0.0175 µM (active)	0.0995 µM (active)	0.0144 µM (active)	0.0863 µM (active)
COC1=NN2C(OC)(c3ccccc3)c3c(-c4ccccc4)sc(-c4ccccc4)c3C2(c2ccccc2)S1 (stereo unspecified)	> 100 µM (inactive)		> 100 µM (inactive)	> 100 µM (inactive)	> 100 µM (inactive)	> 100 µM (inactive)		> 100 µM (inactive)	> 100 µM (inactive)	> 100 µM (inactive)	> 100 µM (inactive)	> 100 µM (inactive)	> 100 µM (inactive)	> 100 µM (inactive)	> 100 µM (inactive)	> 100 µM (inactive)
CC1O[C@@H]2CCCCC(=O)[C@]2(C)[C@H]1C (stereo partly specified)	> 100 µM (inactive)	> 100 µM (inactive)	> 100 µM (inactive)	> 100 µM (inactive)	> 100 µM (inactive)		70.3 µM (inactive)	> 100 µM (inactive)	> 100 µM (inactive)	> 100 µM (inactive)	> 100 µM (inactive)	> 100 µM (inactive)	> 100 µM (inactive)	> 100 µM (inactive)	> 100 µM (inactive)	> 100 µM (inactive)
C[n+]1ccc(-c2cc[n+](C)cc2)cc1 [PARAQUAT DICHLORIDE]	14.8 µM (inactive)	> 30.6 µM (inactive)	10.8 µM (inactive)	> 100 µM (inactive)	> 34.5 µM (inactive)	12.2 µM (inactive)	0.644 µM (active)		10.2 µM (inactive)	4.99 µM (inactive)	33.5 µM (inactive)	> 42 µM (inactive)	> 32.8 µM (inactive)	0.265 µM (active)	> 24.7 µM (inactive)	2.69 µM (inactive)
